{"source": "patent US9975853B2", "about": "“Tetrahydroisoquinolinone derivatives and their use in the inhibition of the HSP70 protein” (Julius-Maximilians-Universitaet Wuerzburg, priority 2014, dated 2018)", "key": {"[1]": {"tested_on": "HSP70/HSP90 multi-chaperone client proteins", "assay": "Western blot analysis of HSP70/HSP90 chaperone-dependent signaling intermediates and substrates in INA-6 cells", "assay_type": "cell-based, human", "conditions": "INA-6, 0.6 μM", "description": "(§1) Western Blot Analysis. Protein expression levels were determined with Western blotting procedures (M. Chatterjee, et al., Blood 2002, 100, 3311-3318). Following separation by SDS-PAGE, proteins were transferred onto nitrocellulose membranes (Schleicher & Schuell, Dassel, Germany) and stained with antibodies against Hsp72, Hsp73, Hsp90 (all from Enzo Life Science, Lörrach, Germany), AIF, lamin A, caspases 9 and 3, PARP (all from Santa Cruz, Heidelberg, Germany). An anti-α tubulin antibody (Sigma, Deisenhofen, Germany) was employed to assess equal loading. Secondary antibodies used were anti-rat (Enzo Life Science), anti-rabbit and anti-mouse (both from GE Healthcare, Little Chalfont, UK). […] The heat shock proteins HSP72 and HSP73 critically interact with HSP90 in order to mediate an essential chaperone function for a multitude of proteins including various signaling intermediates. According to an established HSP72/73-dependent client protein signature and its role for survival in MM, the proposed anti-HSP72/73 effect of trans-7b in the INA-6 multiple myeloma (MM) cell line model was evaluated. […] Lysates were cleared by centrifugation, measured by quantitative protein assay (Bio-Rad, München, Germany) and subjected to SDS gel electrophoresis. […]"}, "[2]": {"tested_on": "peripheral blood mononuclear cells (PBMCs)", "assay": "Cell viability assay in non-malignant peripheral blood mononuclear cells", "assay_type": "cell-based, human", "conditions": "72 hours", "description": "The effect of pharmacological Hsp70 inhibition on cell viability was analyzed after 72 hours of treatment in both non-malignant (mononuclear cells from the peripheral blood) and malignant lymphocytes (multiple myeloma cells). The mononuclear cells were separated from the peripheral blood of healthy donors by Ficoll-Hypaque density gradient centrifugation. The human cell line INA-6 represents a well-established model for multiple myeloma. The percentage of viable and apoptotic cell fractions was assessed using an annexin V-FITC/propidium iodide (PI) staining kit (Bender MedSystems, Vienna, Austria) according to manufacturer's instructions. In brief, cells were washed in PBS, incubated for 10 min in 100 ml binding buffer (10 mM HEPES/NaOH, pH 7.4, 140 mM NaCl, 2.5 mM CaCl2) containing 2.5 ml annexin V-FITC mix and 1 mg/ml propidium iodide (PI), subsequently diluted with 100 ml binding buffer and analyzed by flow cytometry (FACSCalibur/CELLQuest; Becton Dickinson, Heidelberg, Germany). […] To establish kill curves, concentrations of the tested compounds were titrated, and the measured viable cell fractions were further analyzed using the Prism Calculation Software (GraphPad Software Inc., La Jolla, USA). […]"}, "[3]": {"target": "T1, HSP73 (Homo sapiens, UniProt P11142)", "T1 construct": "endogenous in cells; host or cells: INA-6 multiple myeloma cells", "T1 sequence (P11142 whole entry)": "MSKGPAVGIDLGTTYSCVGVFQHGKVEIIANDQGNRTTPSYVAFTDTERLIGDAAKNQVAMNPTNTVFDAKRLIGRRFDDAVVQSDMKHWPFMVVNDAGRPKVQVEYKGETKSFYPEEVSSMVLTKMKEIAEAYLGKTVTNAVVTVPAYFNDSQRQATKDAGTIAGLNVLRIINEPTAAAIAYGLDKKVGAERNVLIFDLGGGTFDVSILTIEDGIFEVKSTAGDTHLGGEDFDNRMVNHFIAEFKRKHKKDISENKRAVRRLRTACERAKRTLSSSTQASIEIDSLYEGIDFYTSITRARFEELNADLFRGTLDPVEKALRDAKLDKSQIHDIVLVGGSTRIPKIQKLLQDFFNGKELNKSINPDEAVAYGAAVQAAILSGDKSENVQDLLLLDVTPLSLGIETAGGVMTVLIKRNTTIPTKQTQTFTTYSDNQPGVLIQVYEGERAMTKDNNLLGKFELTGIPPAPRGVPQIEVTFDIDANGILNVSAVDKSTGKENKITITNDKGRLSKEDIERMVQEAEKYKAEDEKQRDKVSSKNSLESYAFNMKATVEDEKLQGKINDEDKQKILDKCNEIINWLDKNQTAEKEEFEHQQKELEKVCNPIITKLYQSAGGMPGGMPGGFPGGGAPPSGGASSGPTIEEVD", "assay": "Western blot analysis of HSP73 expression in INA-6 cells", "assay_type": "cell-based", "conditions": "INA-6, 0.6 μM, with Z-VAD-FMK 50 μM", "description": "as §1"}}, "note": "“Also recorded” adds a separate entry of the source.", "data": [{"smiles": "COc1ccc(C2C(C(=O)Nc3cccc(C)n3)c3ccccc3C(=O)N2c2ccccc2)cc1", "note": "(stereo not drawn) [trans-7b, trans-3-(4-Methoxyphenyl)-N-(6-methylpyridin-2-yl)-1-oxo-2-phenyl-1,2,3,4-tetrahydroisoquinoline-4-carboxamide]", "values": [{"measurement": "AKT, C-Raf, RIP, IKKα and MEK levels", "setting": "[1]", "result": "strongly downregulated"}, {"measurement": "p-MEK, p-ERK and pSTAT3 levels", "setting": "[1]", "result": "downregulated"}, {"measurement": "cytotoxic effect in primary PBMCs (viability)", "setting": "[2]", "result": "lack any cytotoxic effect even in higher micromolar concentrations"}, {"measurement": "HSP73 constitutive expression level", "setting": "[3]", "result": "decreases; also recorded: reduced"}]}]}
